Assay results: PubChem BioAssay (NCI)
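1) Cells in 96-well plates. 2) Compound, 48 h, 5 concentrations. 3) Linear interpolation between surrounding doses. 4) Unreached endpoint = highest concentration. Abbreviation: GI50, concentration required for 50% inhibition of growth. TGI: concentration producing complete growth inhibition.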

What was measured:
Assay in all cases: DTP human tumour cell line panel, 48 h
CCRF-CEM leukemia = test system: CCRF-CEM leukemia
NCI-H23 lung = test system: NCI-H23 lung
SF-268 CNS = test system: SF-268 CNS
SK-MEL-28 melanoma = test system: SK-MEL-28 melanoma
SN12C renal = test system: SN12C renal
SW-620 colon = test system: SW-620 colon
DU-145 prostate = test system: DU-145 prostate
SR leukemia = test system: SR leukemia
MCF7 breast = test system: MCF7 breast
PC-3 prostate = test system: PC-3 prostate

Structure (SMILES) | TGI (CCRF-CEM leukemia) | TGI (NCI-H23 lung) | TGI (SF-268 CNS) | TGI (SK-MEL-28 melanoma) | TGI (SN12C renal) | TGI (SW-620 colon) | GI50 (DU-145 prostate) | TGI (DU-145 prostate) | GI50 (NCI-H23 lung) | GI50 (SF-268 CNS) | GI50 (SK-MEL-28 melanoma) | GI50 (SR leukemia) | TGI (SR leukemia) | TGI (MCF7 breast) | TGI (PC-3 prostate) | GI50 (MCF7 breast) | GI50 (PC-3 prostate) | GI50 (SN12C renal) | GI50 (SW-620 colon) | GI50 (CCRF-CEM leukemia)
C/C(CC(=O)CCCC(=O)Nc1ccc(Cl)cc1Cl)=N/NC(=O)CC#N | > 100 µM | > 100 µM | > 100 µM | > 100 µM | > 100 µM | > 100 µM |  |  |  |  |  |  |  |  |  |  |  |  |  | 
Cc1ccc(-c2csc(N(C(=O)N3CCN(c4cc5c(cc4F)c(=O)c(C(=O)O)cn5C4CC4)CC3)c3ccccc3)n2)cc1 |  | > 100 µM | > 100 µM | > 100 µM |  |  | 0.46 µM | > 100 µM | 0.317 µM | 0.432 µM | 0.582 µM | 0.238 µM | > 100 µM |  |  |  |  |  |  | 
COc1ccc(NC(=O)C(=O)C(CC2C(=O)NC(=S)NC2=O)C(=O)c2ccc3ccccc3c2)c([N+](=O)[O-])c1 (configuration not stated) | > 100 µM | > 100 µM | > 100 µM | > 100 µM | > 100 µM | > 100 µM |  | > 100 µM |  |  |  |  |  | > 100 µM | > 100 µM |  |  |  |  | 
CCOC(=O)C1Cc2c(ccc(OC)c2OC)C(=O)C1N (configuration not stated) | > 100 µM | > 100 µM |  | > 100 µM | > 100 µM | > 100 µM |  |  |  |  |  |  | > 100 µM |  |  |  |  |  |  | 
CCOC(=O)C12CCCC1(O)N(NC(=O)c1cccc(Cl)c1)C(C)=C2C(=O)OC (configuration not stated) |  |  | > 100 µM | > 100 µM | > 100 µM | > 100 µM |  |  |  |  |  |  | > 100 µM |  |  |  |  |  |  | 
C[C@]12CCC[C@H](OC=O)C1(O)C[C@H](C(=O)O)CC2 (some centres not stated) | > 100 µM | > 100 µM | > 100 µM | > 100 µM | > 100 µM | > 100 µM |  |  |  |  |  |  | > 100 µM |  |  |  |  |  |  | 
C=C(C)C1CC=C(C(=O)O)CC1 (configuration not stated) | 2770 µM | 2200 µM | 4060 µM | 2640 µM | > 5000 µM | > 5000 µM |  |  |  |  |  |  | 4650 µM |  |  |  |  |  |  | 
COC1=CC(=O)c2ccc(C(C)C)cc2C1(C)C1=NC(C)(C)CO1 (configuration not stated) | > 100 µM | > 100 µM | > 100 µM | > 100 µM | > 100 µM | > 100 µM |  |  |  |  |  |  | > 100 µM |  |  |  |  |  |  | 
O=C1C(=O)c2cc([N+](=O)[O-])ccc2-c2ccccc21 |  | 3.29 µM | 2.62 µM | 3.11 µM | 3.05 µM | 2.98 µM | 1.74 µM | 3.16 µM | 1.65 µM | 1.29 µM | 1.73 µM |  |  | 3.64 µM | 3.72 µM | 1.82 µM | 1.97 µM | 1.66 µM | 1.54 µM | 
C[C@H]1CCC/C=C/[C@@H]2C[C@H](O)C[C@H]2[C@H](O)[C@H](S(=O)c2ccc(O)cc2)CC(=O)O1 (some centres not stated) |  | 0.143 µM | > 100 µM | > 100 µM | 0.489 µM | > 100 µM |  |  | 0.0273 µM |  | 0.0316 µM |  |  |  |  | 0.0323 µM | 0.0343 µM | 0.0497 µM | 0.0506 µM | 0.048 µM
O=C(O)/C(Cl)=C(\Cl)Nc1cccc(C(F)(F)F)c1 | > 100 µM | > 100 µM | > 100 µM | > 100 µM | > 100 µM | > 100 µM |  |  |  |  |  |  |  |  |  |  |  |  |  | 
O=c1[nH]cnc2c(C3OC(CO)C(O)C3O)[nH]nc12 (configuration not stated) | > 100 µM | > 100 µM |  | > 100 µM | > 100 µM | > 100 µM |  | 38.2 µM |  |  |  |  | > 100 µM | > 100 µM | > 100 µM |  |  |  |  | 
N=c1ccn2c(n1)OC1C(OP(=O)(O)O)C(CO)OC12 (configuration not stated) |  | > 100 µM | > 100 µM | > 100 µM | > 100 µM | > 100 µM |  | > 100 µM |  |  |  |  | > 51.1 µM | > 100 µM | > 100 µM |  |  |  |  | 
CC(=O)[O-].CC(=O)[O-].[Mn+2].c1ccc(/C(=N\Nc2ccccn2)c2ccccn2)cc1 | 0.402 µM | 16.7 µM | 13.5 µM | 19.7 µM | 6.83 µM | 14.5 µM |  | 11.6 µM | 0.00784 µM |  |  |  |  |  | 14.5 µM |  |  |  | 0.0535 µM | 
CCCCCCCCN(CCCCCCCC)C(=N)c1ccnc2ccccc12 | 2.2 µM | 3.03 µM | 2.89 µM | 1.07 µM | 2.68 µM |  | 1.08 µM | 2.31 µM | 1.49 µM | 1.31 µM | 0.312 µM |  |  | 1.21 µM | 2.52 µM | 0.261 µM | 1.16 µM | 1.16 µM |  | 0.466 µM
Cc1cc(N(CCC#N)CCC#N)ccc1/C=C1/CN(N2C(=O)/C(=C/c3ccc(N(CCC#N)CCC#N)cc3C)N=C2c2ccccc2)C(c2ccccc2)=N1 | > 100 µM | > 100 µM | > 100 µM | > 100 µM | > 100 µM | > 100 µM |  |  |  |  |  |  | > 100 µM |  |  |  |  |  |  | 
C#C[C@@]1(O)[C@@H](CO)O[C@@H](n2cc(Cl)c3c(N)ncnc32)[C@@H]1O | > 100 µM | 0.957 µM | 21.2 µM | 71.5 µM |  |  | 0.131 µM | > 52 µM | 0.192 µM | 0.333 µM | 0.575 µM | 0.073 µM | > 100 µM | 1.1 µM | 4 µM | 0.0264 µM | 0.191 µM |  | 0.0709 µM | 0.248 µM
CC(=O)[CH-]C(=O)c1ccccc1.CC(=O)[CH-]C(=O)c1ccccc1.O=C([O-])C[O-].O=C([O-])C[O-].[Ti+4] |  |  | > 100 µM | > 100 µM | > 100 µM | > 100 µM |  |  |  | > 100 µM | 68.1 µM |  |  |  |  |  |  | 60.5 µM | 53.8 µM | 
CN1C(=O)n2c(nc3ccccc32)C(N=[N+]=[N-])(N=[N+]=[N-])C1=O (configuration not stated) | > 100 µM | > 100 µM | > 100 µM | > 100 µM |  | > 100 µM |  |  |  |  |  |  |  |  |  |  |  |  |  | 
CC(C#N)c1cn(S(=O)(=O)c2ccccc2)c2ccccc12 (configuration not stated) | > 100 µM | > 100 µM | > 100 µM | > 100 µM |  | > 100 µM |  |  |  |  |  |  | > 100 µM |  |  |  |  |  |  | 
Nn1c(CCCl)nc2c(Br)cc(Br)cc2c1=O | 20.3 µM | 62.8 µM | > 100 µM | > 100 µM | > 84.2 µM | > 55 µM |  |  |  |  |  |  | 72 µM |  |  |  |  |  |  | 
CCC[CH2][Sn]1([CH2]CCC)[O]C(c2ccccn2)S(=O)(=O)[O]1 (configuration not stated) | 4.19 µM | 3.5 µM |  | 3.76 µM | 21.1 µM | 3.02 µM |  |  | 1.72 µM |  | 1.94 µM | 2.45 µM | 6.62 µM |  |  |  |  | 9.11 µM | 1.56 µM | 1.54 µM
